Assay results as given in patent US20190021976A1, “COMPOSITION FOR PREVENTING, IMPROVING OR TREATING PHOTOAGING OF SKIN COMPRISING DHPV” (SUNGKWANG MEDICAL FOUNDATION, priority 2016, published 2019).

Tests used:
[1] = system: Involucrin (IVL) DNA promoter region; assay: Methylation specific PCR of IVL promoter in UV-irradiated human skin cells; type: cell-based; conditions: FIG. 4
Text: The aging was induced by irradiation with 0.1 J/cm^2 UV on human skin cells (hypodermis and epidermis were separated using HaCaT cell line purchased from ATCC and human body derived Foreskin, and primary cell culture was used). DNA of the cells was extracted using NucleoSin® Tissue Kit (Macherey-Nagel, Düren, Germany). The extracted DNA was quantified using Nano Drop and its quality was confirmed. In the extracted DNA, unmethylated Cytosine residues were converted to Uracil residues by treating Bisulfite using EZ DNA Methylation-Lightning™ Kit (Zymoresearch, CA, USA) for methylation analysis.
Distilled water was added to Bisulfited DNA 100 ng, primer pair (20 pmole) respectively, 1 uL, TaKaRa EpiTaq HS (5 U/μl) 0.25 uL, 10× EpiTaq PCR Buffer (Mg2^+ free) 5 uL, 25 mM MgCl2 5 uL, dNTP Mixture (2.5 mM each) 6 uL to be 50 uL of the final volume, and then after reacting for […] at 98° C., the procedure of 10 sec at 98° C., 1 min at 55° C., and 30 sec at 72° C. as 40 cycles was repeated and reacted. Then, after extending for 5 min at 72° C., the result was analyzed in 2% (w/v) agarose gel.
Methylation of IVL promoter by DHPV and relative methylation tendency were analyzed by methylation specific PCR which can relatively compare methylation or non-methylation of genes according to band intensity on the electrophoresis. […]

[2] = system: HaCaP cell line and hypodermal cells isolated from human derived foreskin; assay: Biostability: cell viability (Ez-cytox); type: cell-based; conditions: FIG. 5
Procedure: In order to evaluate DHPV biostability, HaCaP cell line and hypodermal cells isolated from human derived foreskin were inoculated (2×10^4 cell each) and cultured on the 24 well plate and stabilized. Then, the cells were cultured in serum free media for 24 hrs and 48 hrs.

[3] = system: MMP-1; assay: MMP-1 real time PCR in UVB-irradiated human derived hypodermis fibroblasts; type: cell-based; conditions: medium containing DHPV for 24 hrs, FIG. 3A
Procedure: (§1) First, human derived hypodermis fibroblasts (hypodermis and epidermis were separated using human body derived Foreskin and the primary cell culture was used) were cultured in the DMEM medium containing 10% FBS (fetal bovine serum), and then cultured in serum free media for 24 hrs and UVB was irradiated. Next, cells were cultured in a medium containing serum or a medium containing 1-41M DHPV for 24 hrs, thereby collecting cells.
In order to confirm changes of mRNA expression level of MMP-1, mRNA was obtained using RNAiso Plus (Takara Bio Inc., Shiga, Japan). Next, CDNA was synthesized and prepared using PrimeScript™ 1st Plus (Takara Bio Inc., Shiga, Japan), and real time PCR was conducted using IQ SYBR (Bio-Rad Laboratories). The primer sequences used in conducting PCR were as same as the following Table 1.

[4] = system: AP-1; assay: AP-1 luciferase reporter gene assay in UVB-irradiated hypodermis fibroblasts; type: cell-based, human; conditions: DHPV treatment, FIG. 3B
Procedure: as §1
AP-1 was obtained by inoculating pGF-AP1-mCMV-EF1-Puro vector (System Biosciences, CA) and a package vector, pMD2.0G and psPAX (Addgene Inc, Cambridge, Mass.) to HEK293T cell and in 36 hrs, viral particles were obtained using […] injection filter, in order to measure activity changes by UVB irradiation through luciferase reporter gene assay. Next, it was inoculated to hypodermis fibroblasts, and cells that injection with puromycin (Sigma, MO, […]) was successes were obtained. Then the activity of AP-1 was measured by using luciferase assay kit (Promega, Madison, Wis.) after culturing cells in the same manner with the hypodermal fibroblast culturing method and treating with DHPV.

[5] = system: PFN1; assay: Western blot of PFN1 expression in UV-irradiated human skin cells; type: cell-based; conditions: 0.1 J/cm^2 UV, DHPV 0.5, 1 nM, FIG. 2
Procedure: (§2) First, aging was induced by irradiation with 0.1 J/cm^2 UV on human skin cells (hypodermis and epidermis were separated using HaCaT cell line purchased from ATCC and human body derived Foreskin, and primary cell culture was used). Next, DHPV, a metabolite of cacao, prepared in 1-1 was treated 0.5, 1 nM, respectively, and cells were obtained.
The expression level of PFN1 as a novel aging marker of epidermal cells was confirmed with Western blot by the same method as the above method except using anti-PFN1 (Abcam, ab118984) antibody instead of anti-involucrin (Santacruz, sc28557) antibody and HRP-combined goat anti-mouse IgG (1:3000; sc 2005, SantaCruz) instead of HRP-combined goat anti-rabbit IgG (1:1000; sc 2004, SantaCruz).

[6] = system: IVL (involucrin); assay: Western blot of IVL (involucrin) expression in UV-irradiated human skin cells; type: cell-based
Procedure: as §2
The expression level of IVL (involucrin) which is one of aging markers of epidermal cells was confirmed by Western blot. Cells were degraded using cell dissolution buffer containing protease inhibitor cocktail kit (P3100-005; GenDEPOT, Barker, Tex.), and phosphatase inhibitor (sc-45065; Santa Cruz Biotechnology, Santa Cruz, Calif.) (#9803; Cell SignalingTechnology, Danvers, Mass.). The aliquot containing 25 ug of cell lysates was separated by electrophoresis on SDS-polyacrylamide gel, and then transferred to nitrocellulose membrane (Amersham, Buckinghamshire, UK) for 180 min at 75 V and […] on a transfer buffer (25 mM Tris, 192 mM glycine, 20% [v/v] methanol [pH 8.3]). The membrane was blocked with PBS of 3% (w/v) BSA containing 0.1% (v/v) Tween-20 for 60 min, and then cultured with anti-involucrin (Santacruz, sc28557) antibody. HRP-combined goat anti-rabbit IgG (1:1000; sc 2004, SantaCruz) was used as a secondary antibody. ECL lumi Femto solution A/B (Dogen, Seoul, Korea) was used to develop blots.

- activity of AP-1 [4]: recovered similarly to the control group
Compound: O=C1CCC(Cc2ccc(O)c(O)c2)O1 (centres unmarked) [DHPV, 5-(3′,4′-Dihydroxyphenyl)-Γ-valerolactone]
- methylation of Involucrin (IVL) DNA promoter region induced by photoaging ([1]; 0.1 J/cm^2 UV, methylation specific PCR): inhibited methylation
- intensity of methylation band ([1]; UV treated cells when treating DHPV, electrophoresis): decreased
- biostability (cell viability) [2]: shown similarly to that of control group
- mRNA expression of MMP-1 [3]: recovered similarly to the control group
- expression level of the PFN1 marker [5]: increased in a concentration-dependent manner
- concentration exhibiting excellent skin aging-preventing function ([6]; based on skin cells): 1 nM
- expression level of the IVL marker (amount of UV-increased IVL) ([6]; human skin cells, 0.1 J/cm^2 UV, DHPV 0.5, 1 nM, FIG. 2): reduced in a concentration-dependent manner
